The values below come from patent US20100160369A1, “S1P1 Agonists and Methods of Making And Using” (EXELIXIS, INC., priority 2008, published 2010).

A value given as a limit tells only on which side of the number the result lay.

Sequence of S1P1 (P21453 whole entry): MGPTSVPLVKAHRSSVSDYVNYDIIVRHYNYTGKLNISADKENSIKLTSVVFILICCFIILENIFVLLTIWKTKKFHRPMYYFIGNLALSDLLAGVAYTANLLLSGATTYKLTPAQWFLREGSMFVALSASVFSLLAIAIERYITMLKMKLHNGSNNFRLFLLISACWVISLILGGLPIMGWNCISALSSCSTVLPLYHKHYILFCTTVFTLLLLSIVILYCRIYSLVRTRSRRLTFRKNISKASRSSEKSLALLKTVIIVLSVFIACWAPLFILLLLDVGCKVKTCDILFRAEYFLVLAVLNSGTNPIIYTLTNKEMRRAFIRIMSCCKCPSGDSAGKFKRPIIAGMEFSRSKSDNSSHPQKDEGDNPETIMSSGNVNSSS

The target of one assay is S1P1 (Homo sapiens, UniProt P21453). The experiment in a line: CNG cAMP Assay (Assay 1). It is filed as cell-based. Set-up: host or cells: HEK293 cells expressing the CNG channel. The settings on record: read-out: Assay 1 EC50. Here is the method:
Frozen HEK293 cells expressing the CNG channel and S1P1 (BD Biosciences, San Jose, Calif.) were thawed and plated into the wells of a black, clear bottom, 384-well CellBind plate (Corning, Corning, N.Y.) at 14,000 cells per well. HEK293 cells expressing the CNG channel and CB1 (BD Biosciences) were cultured and plated under the same conditions. The cells were incubated for 16 h at 37° C. in complete DMEM medium (Invitrogen Carlsbad, Calif.) containing 10% FBS (HyClone Logan, Utah), 250 μg/mL geneticin (Invitrogen), and 1 μg/mL puromycin (Sigma-Aldrich, St. Louis, Mo.). A membrane potential dye (BD Biosciences) was added and the plates were incubated for 2-2.5 h at room temperature.
Test compounds were tested at maximum concentrations of 10 μM. Compounds were diluted in DMSO (10 concentration points, 3-fold each) and added to the assay plate at final DMSO concentrations of 1.8%. For each compound, there were duplicate assay plates and each assay plate had duplicate wells per concentration point. Test compounds were added to the cells in a DPBS solution containing 25 μM Ro 20-1724 (Sigma-Aldrich), 500 nM of the A2b receptor agonist NECA (Sigma-Aldrich) and 10 nM (EC95) of S1P (Avanti Alabaster, Ala.) and incubated for 90 min. The assay plate was read before compound addition (T0) and after the 90 min incubation (T90) using an EnVision plate reader (PerkinElmer, Waltham, Mass.) at an excitation wavelength of 350 nm and an emission wavelength of 590 nm. The T90/T0 ratio was determined for each concentration of the test compounds. The percent agonist activity was determined as [(test compound−DMSO alone control)/(NECA alone control−DMSO alone control)*100]. The percent activities were plotted against compound concentration to determine EC50 using XLFit (IDBS, Alameda, Calif.). The control used for calculating rEC50 in the S1P1 CNG agonist assay was DMSO.
Assay 1 is the CNG cAMP Assay as described in Biological Example 1. Assay 2a and 2b are the Tango™ β-arrestin Recruitment Assay in HEK293 and U2OS cells, respectively, as described in Biological Example 2. Assay 3a is the hS1P1R GTPγS Binding Assay as described in Biological Example 3. Assay 3b is the GTP-Eu Binding Assay as described in Biological Example 3. EC50's were measured unless otherwise noted. […] In the table, “nt” means the Compound was not tested and “no” means the compound was tested but had no measurable activity under the assay conditions employed.
For `O=C(O)CCc1ccc(-c2noc(-c3cn4cc(C(F)(F)F)cc(Cl)c4n3)n2)c(C(F)(F)F)c1` [Entry 8], the EC50 was at most 100 nM. Same read-out and setting: the figure for `NC(Cc1ccc(-c2noc(-c3cn4cc(C(F)(F)F)cc(Cl)c4n3)n2)c(Cl)c1)C(=O)O` (stereo not shown) [Entry 11] is 100 to 500 nM; for `O=C(O)CCc1ccc(-c2noc(-c3cn4cc(C(F)(F)F)cc(Cl)c4n3)n2)cc1` [Entry 22] it is at most 100 nM. As for `Cc1cc(-c2noc(-c3cn4cc(C(F)(F)F)cc(Cl)c4n3)n2)ccc1CCC(=O)O` [Entry 23], the EC50 is at most 100 nM. Take `O=C(O)CCc1cc(Cl)c(-c2noc(-c3cn4cccc(Cl)c4n3)n2)cc1F` [Entry 32]: the EC50 is 100 to 500 nM. For `Cc1c(Cl)cn2cc(-c3nc(-c4cc(F)c(CCC(=O)O)cc4Cl)no3)nc2c1Cl` [Entry 35], the EC50 lay in the range of 500 to 1000 nM. With `O=C(O)C1CC1c1ccc(-c2noc(-c3cn4cc(C(F)(F)F)cc(Cl)c4n3)n2)c(F)c1` (stereo not shown) [Entry 41], the EC50 lay within 100 to 500 nM. Still for that read-out and setting: as for `N#Cc1cc(Cl)c2nc(-c3nc(-c4cc(F)c(CCC(=O)O)cc4Cl)no3)cn2c1` [Entry 48], the figure is at most 100 nM. Consider `O=C(O)C(O)COc1ccc(-c2noc(-c3cn4cc(C(F)(F)F)cc(Cl)c4n3)n2)c(Cl)c1` (stereo not shown) [Entry 57], for which the EC50 is at most 100 nM. As for `O=C(O)CCc1cc(F)c(-c2noc(-c3cn4cc(C(F)(F)F)cc(Cl)c4n3)n2)cc1F` [Entry 60], the EC50 was at most 100 nM. On the same count and under the same terms, the figure for `Cc1c(Br)cc(Br)c2nc(-c3nc(-c4cc(F)c(CCC(=O)O)cc4Cl)no3)cn12` [Entry 62] is at most 100 nM; for `Fc1cccc(F)c1-c1nnc(-c2cn3cc(C(F)(F)F)cc(Cl)c3n2)o1` [Entry 66] it is 500 to 1000 nM. Take `O=C(O)C1CC1c1ccc(-c2noc(-c3cn4cc(C(F)(F)F)cc(Cl)c4n3)n2)c(C(F)(F)F)c1` (stereo not shown) [Entry 70]: the EC50 is 100 to 500 nM.

With `NC(=O)C1CC1c1ccc(-c2noc(-c3cn4cc(C(F)(F)F)cc(Cl)c4n3)n2)c(Cl)c1` (stereo not shown) [Entry 72], the EC50 is at most 100 nM. Consider `FC(F)(F)c1cc(Cl)c2nc(-c3nnc(-c4ccccc4Cl)o3)cn2c1` [Entry 73], for which the EC50 was at most 100 nM. Consider `O=C(O)C1CC1c1ccc(-c2noc(-c3cn4cc(C(F)(F)F)cc(Cl)c4n3)n2)cc1F` (stereo not shown) [Example 78, 2-(4-{5-[8-chloro-6-(trifluoromethyl)imidazo[1,2-a]pyridin-2-yl]-1,2,4-oxadiazol-3-yl}-2-fluorophenyl)cyclopropanecarboxylic acid], for which the EC50 lay in the range of 100 to 500 nM. For `CC(Oc1cc(Cl)c(-c2noc(-c3cn4cc(C(F)(F)F)cc(Cl)c4n3)n2)cc1F)C(=O)O` (stereo not shown) [Example 83, 2-[(5-chloro-4-{5-[8-chloro-6-(trifluoromethyl)imidazo[1,2-a]pyridin-2-yl]-1,2,4-oxadiazol-3-yl}-2-fluorophenyl)oxy]propanoic acid], the EC50 lay within 100 to 500 nM. Turning to `OC[C@H]1C[C@H](Oc2ccc(-c3noc(-c4cn5cc(C(F)(F)F)cc(Cl)c5n4)n3)c(Cl)c2)CN1` [Example 84, {(2R,4S)-4-[(3-chloro-4-{5-[8-chloro-6-(trifluoromethyl)imidazo[1,2-a]pyridin-2-yl]-1,2,4-oxadiazol-3-yl}phenyl)oxy]pyrrolidin-2-yl}methanol], the EC50 was 100 to 500 nM. Turning to `Cc1cc(-c2noc(-c3cn4cc(C(F)(F)F)cc(Cl)c4n3)n2)ccc1C1CC1C(=O)O` (stereo not shown) [Example 86, 2-(4-{5-[8-chloro-6-(trifluoromethyl)imidazo[1,2-a]pyridin-2-yl]-1,2,4-oxadiazol-3-yl}-2-methylphenyl)cyclopropanecarboxylic acid], the EC50 was 100 to 500 nM. Still for that read-out and setting: the figure for `OC[C@@H]1C[C@H](Oc2ccc(-c3noc(-c4cn5cc(C(F)(F)F)cc(Cl)c5n4)n3)c(Cl)c2)CN1` [Example 87, {(2S,4S)-4-[(3-chloro-4-{5-[8-chloro-6-(trifluoromethyl)imidazo[1,2-a]pyridin-2-yl]-1,2,4-oxadiazol-3-yl}phenyl)oxy]pyrrolidin-2-yl}methanol] is at most 100 nM; for `O=C(O)C1CC1c1cc(F)c(-c2noc(-c3cn4cc(C(F)(F)F)cc(Cl)c4n3)n2)cc1F` (stereo not shown) [Example 88, 2-(4-{5-[8-chloro-6-(trifluoromethyl)imidazo[1,2-a]pyridin-2-yl]-1,2,4-oxadiazol-3-yl}-2,5-difluorophenyl)cyclopropanecarboxylic acid] it is at most 100 nM; for `Nc1ccc(-c2noc(-c3cn4cc(C(F)(F)F)cc(Cl)c4n3)n2)c(Cl)c1` [Example 90, 3-chloro-4-{5-[8-chloro-6-(trifluoromethyl)imidazo[1,2-a]pyridin-2-yl]-1,2,4-oxadiazol-3-yl}aniline] it is at most 100 nM. Same read-out and setting: as for `Cc1cc(-c2noc(-c3cn4cc(C(F)(F)F)cc(Cl)c4n3)n2)cc(C)c1O[C@H](C)CO` [Example 91, (2R)-2-[(4-{5-[8-chloro-6-(trifluoromethyl)imidazo[1,2-a]pyridin-2-yl]-1,2,4-oxadiazol-3-yl}-2,6-dimethylphenyl)oxy]propan-1-ol], the figure is at most 100 nM; as for `O=C(O)CCNc1ccc(-c2noc(-c3cn4cc(C(F)(F)F)cc(Cl)c4n3)n2)c(Cl)c1` [Example 95, N-(3-chloro-4-{5-[8-chloro-6-(trifluoromethyl)imidazo[1,2-a]pyridin-2-yl]-1,2,4-oxadiazol-3-yl}phenyl)-beta-alanine], 100 to 500 nM; as for `O=C(O)CNc1ccc(-c2noc(-c3cn4cc(C(F)(F)F)cc(Cl)c4n3)n2)c(Cl)c1` [Example 103, N-(3-chloro-4-{5-[8-chloro-6-(trifluormethyl)imidazo[1,2-a]pyridin-2-yl]-1,2,4-oxadiazol-3-yl}phenyl)glycine], 100 to 500 nM. Still for that read-out and setting: the figure for `Cc1cc(NS(C)(=O)=O)c(F)cc1-c1noc(-c2cn3cc(C(F)(F)F)cc(Cl)c3n2)n1` [Example 106, N-(4-{5-[8-chloro-6-(trifluoromethyl)imidazo[1,2-a]pyridin-2-yl]-1,2,4-oxadiazol-3-yl}-2-fluoro-5-methylphenyl)methane sulfonamide] is at most 100 nM.

As to `Cc1cc(-c2noc(-c3cn4cc(C(F)(F)F)cc(Cl)c4n3)n2)cc(C)c1O[C@@H](C)CO` [Example 107, (2S)-2-[(4-{5-[8-chloro-6-(trifluoromethyl)imidazo[1,2-a]pyridin-2-yl]-1,2,4-oxadiazol-3-yl}-2,6-dimethylphenyl)oxy]propan-1-ol], the EC50 is at most 100 nM.

Staying with this assay, now noted: relative EC50 was measured (footnote 1), read-out: Assay 1 Relative EC50.
As for `O=C(O)CCc1cc(Cl)c(-c2noc(-c3cn4ccccc4n3)n2)cc1F` [Entry 27], the EC50 lay in the range of 5000 to 10000 nM. On the same count and under the same terms, the figure for `C=CCOc1c(C)cc(-c2noc(-c3cn4cc(C(F)(F)F)cc(Cl)c4n3)n2)cc1C` [Entry 37] is 5000 to 10000 nM; for `O=C(O)CCc1cc(Cl)c(-c2noc(-c3cn4cc(F)cc(F)c4n3)n2)cc1F` [Entry 40] it is 1000 to 5000 nM; for `COc1cc2nc(-c3nc(-c4cc(F)c(CCC(=O)O)cc4Cl)no3)cn2cc1Cl` [Entry 55] it is 5000 to 10000 nM. As for `CS(=O)(=O)Nc1cc(Cl)c2nc(-c3nc(-c4cc(F)c(CCC(=O)O)cc4Cl)no3)cn2c1` [Entry 59], the EC50 lay in the range of 1000 to 5000 nM. Still for that read-out and setting: as for `O=C(O)CCc1ccc(Nc2nnc(-c3cn4cc(C(F)(F)F)cc(Cl)c4n3)o2)c(Cl)c1` [Entry 74], the figure is 5000 to 10000 nM.

Regarding `O=C(O)C1CC1c1ccc(-c2noc(-c3cn4cc(C(F)(F)F)cc(Cl)c4n3)n2)cc1` (stereo not shown) [Entry 75], the EC50 is 500 to 1000 nM.

For orientation: EC50 means the concentration giving half of the maximal effect.
